# In article PMC7438329 (Scientific Reports, 2020):
# Structures can show the parent of a compound that is named as a salt. Where two headings read alike, the source gives them in different places.
# Assays:
# zebrafish embryos [1] = type: in vivo, zebrafish (Danio rerio)
# Experimental: To this end, three zebrafish embryos were treated with a drug (10 ~ 100 μM) in a well of 96-well plate at the onset of 24 hpf and then assayed for touch responses at 27 and 48 hpf, when zebrafish embryos show tactile-induced short-distance forward movement and escape swimming, respectively.
# Two chemical libraries from Kyoto University and Nagoya University, composed of total ~ 1,000 bioactive compounds, were used in this study. The 2 µl of chemical compounds (1 ~ 10 mM) dissolved in DMSO were diluted to 200 µl with E3 medium (5 mM NaCl, 0.17 mM KCl, 0.33 mM CaCl2, 0.33 mM MgSO4) and transferred to 96-well plate. Three zebrafish embryos (24 hpf) were transferred into each well of the plate and incubated in a 28.5 °C incubator. At 27 hpf, three embryos with a small amount of drug solution were transferred to a 90-mm dish containing 15 ml of E3 medium and subjected to touch response using forceps under a dissection microscope Leica MZ16. After this assay, embryos with a small amount of E3 solution were transferred back to the drug solution in 96-well plate and incubated in the 28.5 °C incubator. At 48 hpf, embryos were transferred to a 90-mm dish containing 15 ml of E3 medium again and subjected to the touch response.
# zebrafish embryos [2] = type: in vivo, zebrafish (Danio rerio); remark: listed apart in the source
# zGlyR α1 + zGlyRβb = zGlyR α1 + zGlyRβb (Danio rerio, UniProt O93430+Q6DC22); test: two-electrode voltage-clamp of Xenopus oocytes expressing heteromeric zebrafish α1βb GlyR; type: cell-based
# Sequence of zGlyR α1 + zGlyRβb (Q6DC22 entry or part of it, one chain of several): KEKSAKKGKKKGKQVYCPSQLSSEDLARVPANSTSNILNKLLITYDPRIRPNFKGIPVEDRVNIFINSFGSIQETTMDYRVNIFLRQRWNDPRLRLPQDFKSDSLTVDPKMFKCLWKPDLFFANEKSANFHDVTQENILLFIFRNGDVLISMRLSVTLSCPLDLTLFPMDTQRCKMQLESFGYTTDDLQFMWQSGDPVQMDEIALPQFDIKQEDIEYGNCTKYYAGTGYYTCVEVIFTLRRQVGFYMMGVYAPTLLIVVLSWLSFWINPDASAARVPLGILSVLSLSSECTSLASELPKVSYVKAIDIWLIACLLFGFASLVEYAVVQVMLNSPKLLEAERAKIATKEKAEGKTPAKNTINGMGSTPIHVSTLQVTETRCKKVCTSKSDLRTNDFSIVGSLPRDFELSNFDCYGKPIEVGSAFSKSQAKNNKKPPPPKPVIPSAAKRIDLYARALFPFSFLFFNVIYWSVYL
# Experimental: (§1) To assess the drug sensitivity of GlyRs, we employed electrophysiology using Xenopus oocytes.
# (§2) Full-length cDNAs encoding zebrafish GlyR α1 and βb and human GlyR α1 and β subunits were used in this study. Capped cRNAs for expression in Xenopus laevis oocytes were synthesized from linearized templates using SP6 mMessage mMachine SP6 transcription kit (Thermo Fisher Scientific) as described previously. Oocytes were injected with five femtomoles of cRNA using a Nanoject II (Drummond Scientific). Oocytes were moved to 48-well plates in Barth’s solution (88 mM NaCl, 1 mM KCl, 2.4 mM NaHCO3, 0.33 mM Ca (NO3)2, 0.41 mM CaCl2, 0.82 mM MgSO4, 10 mM HEPES at pH 7.5 with NaOH, supplemented with 50 µg/ml gentamicin and 100 units/ml penicillin/streptomycin) and incubated at 18 °C for 24–48 h prior to recording. Oocyte recording solution (90 mM NaCl, 1 mM KCl, 2 mM CaCl2, 1 mM MgCl2, 10 mM HEPES at pH 7.5 with NaOH) and drug solutions of seven different concentrations were flew into the oocyte chamber using a BPS-8 solution switcher (ALA Scientific). Borosilicate electrodes had resistances of ~ 2.0 MΩ when filed with 3 M KCl. […] Signals were low-pass filtered at 10 Hz, and sampled at 100 Hz. […] Statistical significance was assessed using the pair-wise analysis of variance.
# zGlyR α1 = molecular target: T1, zGlyR α1 (Danio rerio, UniProt O93430); test: two-electrode voltage-clamp of Xenopus oocytes expressing homomeric zebrafish α1 GlyR; type: cell-based
# T1 construct: Full-length cDNAs encoding zebrafish GlyR α1 and βb and human GlyR α1 and β subunits were used in this study; expressed in transfected cells; host or cells: Xenopus laevis oocytes injected with cRNA
# T1 sequence (O93430 25-444): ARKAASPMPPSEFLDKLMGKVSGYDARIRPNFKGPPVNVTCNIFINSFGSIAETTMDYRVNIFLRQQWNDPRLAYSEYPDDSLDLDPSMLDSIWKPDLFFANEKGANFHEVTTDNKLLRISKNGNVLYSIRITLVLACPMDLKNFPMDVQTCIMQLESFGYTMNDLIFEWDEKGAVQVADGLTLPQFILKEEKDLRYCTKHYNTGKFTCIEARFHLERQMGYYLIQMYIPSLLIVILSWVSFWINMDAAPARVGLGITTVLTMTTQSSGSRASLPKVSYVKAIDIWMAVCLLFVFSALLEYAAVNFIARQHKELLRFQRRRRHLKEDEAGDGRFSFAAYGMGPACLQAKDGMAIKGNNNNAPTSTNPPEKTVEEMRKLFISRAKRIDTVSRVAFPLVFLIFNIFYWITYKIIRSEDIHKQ
# Experimental: as §1, §2
# zebrafish GlyRs = molecular target: T2, zebrafish GlyRs (Danio rerio, UniProt O93430); test: cell-based; type: cell-based; conditions: rounded value in discussion; read-out: IC50 values of GlyRs expressed in Xenopus oocytes
# T2 sequence (O93430 25-444): T1 sequence (O93430 25-444)
# Experimental: as §2
# hGlyR α1 + hGlyRβb = molecular target: T3, hGlyR α1 + hGlyRβb (Homo sapiens, UniProt P23415+P48167); test: two-electrode voltage-clamp of Xenopus oocytes expressing heteromeric human α1β GlyR; type: cell-based
# T3 construct: Full-length cDNAs encoding zebrafish GlyR α1 and βb and human GlyR α1 and β subunits were used in this study; expressed in transfected cells; host or cells: Xenopus laevis oocytes injected with cRNA
# T3 sequence (P48167 23-497, one chain of several): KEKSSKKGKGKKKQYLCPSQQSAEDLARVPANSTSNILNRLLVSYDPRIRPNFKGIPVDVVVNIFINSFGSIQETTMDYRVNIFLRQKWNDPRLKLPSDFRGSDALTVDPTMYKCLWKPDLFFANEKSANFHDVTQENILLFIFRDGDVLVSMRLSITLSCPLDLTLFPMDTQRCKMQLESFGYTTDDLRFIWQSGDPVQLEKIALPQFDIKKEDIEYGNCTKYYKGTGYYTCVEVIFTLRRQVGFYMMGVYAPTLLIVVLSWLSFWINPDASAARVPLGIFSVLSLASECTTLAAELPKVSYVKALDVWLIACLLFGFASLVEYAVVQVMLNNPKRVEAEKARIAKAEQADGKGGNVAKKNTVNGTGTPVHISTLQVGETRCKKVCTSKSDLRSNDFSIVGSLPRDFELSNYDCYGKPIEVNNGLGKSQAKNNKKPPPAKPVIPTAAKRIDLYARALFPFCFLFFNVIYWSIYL
# Experimental: as §1
# (§3) We also investigated whether niflumic acid blocks human GlyRs.
# as §2
# hGlyR α1 = molecular target: T4, hGlyR α1 (Homo sapiens, UniProt P23415); test: two-electrode voltage-clamp of Xenopus oocytes expressing homomeric human α1 GlyR; type: cell-based
# T4 construct: Full-length cDNAs encoding zebrafish GlyR α1 and βb and human GlyR α1 and β subunits were used in this study; expressed in transfected cells; host or cells: Xenopus laevis oocytes injected with cRNA
# T4 sequence (P23415 29-457): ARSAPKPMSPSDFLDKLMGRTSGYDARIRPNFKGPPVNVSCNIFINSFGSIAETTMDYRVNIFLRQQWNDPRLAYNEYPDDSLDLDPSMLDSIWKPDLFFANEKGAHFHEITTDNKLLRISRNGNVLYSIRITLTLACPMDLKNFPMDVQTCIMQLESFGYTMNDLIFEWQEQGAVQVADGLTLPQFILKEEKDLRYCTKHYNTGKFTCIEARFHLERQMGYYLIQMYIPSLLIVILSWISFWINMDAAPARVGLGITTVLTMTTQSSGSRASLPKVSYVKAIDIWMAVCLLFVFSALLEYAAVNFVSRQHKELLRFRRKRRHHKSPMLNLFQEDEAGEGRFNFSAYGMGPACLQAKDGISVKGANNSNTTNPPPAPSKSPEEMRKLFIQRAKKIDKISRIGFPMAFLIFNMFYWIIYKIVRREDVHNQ
# Experimental: as §1, §3, §2
# [3] = statement in discussion, no reference given; cited from earlier work
# zebrafish embryos [4] = test: video recording of zebrafish touch response at 48 hpf in the presence of drug; type: in vivo, zebrafish (Danio rerio); conditions: for tactile response of zebrafish embryos at 48 hpf: bath application 30 min: 70 μM strychnine, 5 mM picrotoxin, 200 μM nifedipine, 500 μM niflumic acid; for drug concentration efficient for inducing abnormal touch response: zebrafish embryos 48 hpf, bath application
# Excerpt: Tactile-evoked zebrafish movements in the presence of control 1% DMSO or drug were video recorded at 48 hpf using a dissection microscope. Touch responses elicited by tactile stimulation delivered to the tail with forceps were captured with a high-speed CCD camera at 200 frames per second (HAS-220, Ditect) as described previously.
# heteromeric αβ GlyRs = conditions: mammals; cited from earlier work
# homomeric α GlyRs = conditions: mammals; cited from earlier work
# [5] = drug 10 ~ 100 μM, 1% DMSO, from 24 hpf, touch responses at 27 and 48 hpf
# [6] = purchased drugs, several different concentrations
# [7] = with 200 μM glycine, mean ± SEM, 10 oocytes
# [8] = read-out: IC50 of inhibition of glycine current, with 200 μM glycine, mean ± SEM, 10 oocytes
compound,measurement,setting,value
CCCCCC[C@H]1C(=O)O[C@H](C)[C@H](NC(=O)c2cccc(NC=O)c2O)C(=O)O[C@@H](C)[C@@H]1OC(=O)CC(C)C [Antimycin A],Response 1st screening,zebrafish embryos [1]; [5],Weird contraction
same,Response 2nd screening,zebrafish embryos [2]; [6],Normal
O=c1oc2ccccc2c(O)c1Cc1c(O)c2ccccc2oc1=O [Dicumarol],Response 1st screening,zebrafish embryos [1]; [5],Weird contraction
same,Response 2nd screening,zebrafish embryos [2]; [6],Normal
Cc1c(-c2ccccc2)oc2c(C(=O)OCCN3CCCCC3)cccc2c1=O [Flavoxate hydrochloride],Response 1st screening,zebrafish embryos [1]; [5],Weird contraction
same,Response 2nd screening,zebrafish embryos [2]; [6],Normal
CC(N)CCCC(C)(C)O (stereo not shown) [Heptaminol hydrochloride],Response 1st screening,zebrafish embryos [1]; [5],Body shrinkage
same,Response 2nd screening,zebrafish embryos [2]; [6],Normal
Cc1cccc(Nc2ccccc2C(=O)O)c1C [Mefenamic acid],Response 1st screening,zebrafish embryos [1]; [5],Body shrinkage
same,Response 2nd screening,zebrafish embryos [2]; [6],Normal
COC(=O)C1=C(C)NC(C)=C(C(=O)OC)C1c1ccccc1[N+](=O)[O-] [Nifedipine],Hill coeff of drug-mediated inhibition,zGlyR α1 + zGlyRβb,0.4 ± 0.0
same,IC50,zGlyR α1 + zGlyRβb,162 ± 24 µM
same,Response 1st screening,"zebrafish embryos [1]; zebrafish, in vivo",Body shrinkage
same,IC50,zGlyR α1,239 ± 38 µM
same,Hill coeff of drug-mediated inhibition,zGlyR α1; [7],0.5 ± 0.1
same,IC50,zebrafish GlyRs,200 µM
same,Response 2nd screening,"zebrafish embryos [2]; zebrafish, in vivo",Body shrinkage
same,IC50,hGlyR α1 + hGlyRβb,130 ± 27 µM
same,Hill coeff of drug-mediated inhibition,hGlyR α1 + hGlyRβb; [7],0.9 ± 0.2
same,IC50,hGlyR α1,171 ± 30 µM
same,Hill coeff of drug-mediated inhibition,hGlyR α1; [7],1.1 ± 0.2
O=C(O)c1cccnc1Nc1cccc(C(F)(F)F)c1 [Niflumic acid],solubility in water,[3],insoluble to water
same,IC50,zGlyR α1 + zGlyRβb,426 µM
same,Hill coeff of drug-mediated inhibition,zGlyR α1 + zGlyRβb; [7],0.9 ± 0.1
same,Response 1st screening,zebrafish embryos [1]; [5],Weird contraction
same,tactile response of zebrafish embryos at 48 hpf,zebrafish embryos [4],touch-evoked shrinkage of the body
same,drug concentration efficient for inducing abnormal touch response,zebrafish embryos [4],500 µM
same,IC50,zGlyR α1,801 ± 91 µM
same,Hill coeff of drug-mediated inhibition,zGlyR α1; [7],0.5 ± 0.1
same,IC50,zebrafish GlyRs,400 µM
same,Response 2nd screening,zebrafish embryos [2]; [6],Body shrinkage
same,IC50,hGlyR α1 + hGlyRβb,930 ± 111 µM
same,Hill coeff of drug-mediated inhibition,hGlyR α1 + hGlyRβb; [7],1.1 ± 0.1
same,IC50,hGlyR α1,1070 µM
same,Hill coeff of drug-mediated inhibition,hGlyR α1; [7],1.1 ± 0.2
Cl.Cl.c1ccc2c3c([nH]c2c1)C1C2CCC(C4CCCNC42)N1CC3 (stereo not shown) [Nitrarine dihydrochloride],Response 1st screening,zebrafish embryos [1]; [5],Weird contraction
same,Response 2nd screening,zebrafish embryos [2]; [6],Normal
COc1ccc(Cc2nccc3cc(OC)c(OC)cc23)cc1OC [Papaverine hydrochloride],Response 1st screening,zebrafish embryos [1]; [5],Weird contraction
same,Response 2nd screening,zebrafish embryos [2]; [6],Normal
O=C1C[C@@H]2OCC=C3CN4CC[C@]56c7ccccc7N1[C@H]5[C@H]2[C@H]3C[C@H]46 [Strychnine],Response 1st screening,zebrafish embryos [1]; [5],Body shrinkage
same,tactile response of zebrafish embryos at 48 hpf,zebrafish embryos [4],bilateral trunk contractions resulting in the shrinkage of the body
same,Hill coeff of drug-mediated inhibition,zGlyR α1,0.7 ± 0.2
same,Response 2nd screening,zebrafish embryos [2]; [6],Body shrinkage
same,Hill coeff of drug-mediated inhibition,hGlyR α1 + hGlyRβb,0.8 ± 0.1
same,IC50,hGlyR α1 + hGlyRβb,0.092 ± 0.019 µM
same,Hill coeff of drug-mediated inhibition,hGlyR α1,1.0 ± 0.1
same,IC50,hGlyR α1,0.072 ± 0.012 µM
"NCC(=O)O [glycine, Glycine]",Hill coefficient of glycine-dependent gating,zGlyR α1 + zGlyRβb,2.5 ± 0.2
same,EC50,zGlyR α1 + zGlyRβb; read-out: EC50 of glycine-dependent gating,163 µM
same,Hill coefficient of glycine-dependent gating,"zGlyR α1; mean ± SEM, 10 oocytes",2.7 ± 0.1
same,EC50,"zGlyR α1; mean ± SEM, 10 oocytes, read-out: EC50 of glycine-dependent gating",112 ± 10 µM
same,Hill coefficient of glycine-dependent gating,hGlyR α1 + hGlyRβb,3.2 ± 0.2
same,Hill coefficient of glycine-dependent gating,hGlyR α1,2.9 ± 0.1
Picrotoxin,Hill coeff of drug-mediated inhibition,zGlyR α1 + zGlyRβb,0.9 ± 0.0
same,IC50,zGlyR α1 + zGlyRβb; read-out: IC50 of inhibition of glycine current,6.4 ± 0.3 µM
same,Response 1st screening,zebrafish embryos [1]; [5],failed to identify it
same,picrotoxin necessary to block heteromeric αβ GlyRs compared with homomeric α GlyRs,heteromeric αβ GlyRs,ten folds more
same,tactile response of zebrafish embryos at 48 hpf,zebrafish embryos [4],shrinkage of the body
same,drug concentration efficient for inducing abnormal touch response,zebrafish embryos [4],5000 µM
same,IC50,zGlyR α1; [8],6.1 ± 0.3 µM
same,Hill coeff of drug-mediated inhibition,zGlyR α1; [7],1.2 ± 0.1
same,IC50,zebrafish GlyRs,6 µM
same,IC50,hGlyR α1 + hGlyRβb; [8],94 µM
same,Hill coeff of drug-mediated inhibition,hGlyR α1 + hGlyRβb; [7],**0.5 ± 0.1
same,concentration of picrotoxin that blocks homomeric α GlyRs,homomeric α GlyRs,~ 10 μM
same,IC50,hGlyR α1; [8],7.2 ± 0.9 µM
same,Hill coeff of drug-mediated inhibition,hGlyR α1; [7],0.9 ± 0.1
